# Test: Log P by HPLC on reversed phase columns (EEC directive 79/831 Annex V.A8; methods [a], [b], [c])
# Assay type: physicochemical
# Details: not given
# Method in brief: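 Reversed-phase HPLC with LC-UV detection, 10→95% acetonitrile linear gradient; aqueous eluent 0.1% formic acid [a], 0.001 M ammonium acetate, neutral [b], or 0.1% phosphoric acid [c]. Calibrated against C3–C16 alkan-2-ones of known Log P by retention-time linear interpolation; multiple values within a method separated by "+".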
row,Compound,LogP
1,N#Cc1cncn1CC(O)c1ccc(Oc2ccc(C(F)(F)F)cc2)nc1C(F)(F)F (centres unmarked) [I-149],3.13^[a]
2,N#Cc1cncn1CC(O)c1ccc(Oc2ccc(Br)nc2)cc1Cl (centres unmarked) [I-73],2.47^[a]
3,CC(C)C(O)(Cn1cncc1C#N)c1ccc(Cl)cc1 (centres unmarked) [I-288],2.31^[a]
4,CC(O)(Cn1cncc1C#N)c1ccc(Oc2ccc(I)cc2)cc1Cl (centres unmarked) [I-202],3.73^[a]
5,N#Cc1cncn1CC(O)c1ccccc1F (centres unmarked) [I-139],1.31^[a]
6,N#Cc1cncn1CC(O)c1cnc(Oc2ccc(S(F)(F)(F)(F)F)cc2)cc1C(F)(F)F (centres unmarked) [I-96],3.44^[a]
7,COc1ccc(C#CC(O)(Cn2cncc2C#N)C2(Cl)CC2)cc1 (centres unmarked) [I-321],2.51^[a]
8,CCCCC(O)(Cn1cncc1C#N)c1ccc(Cl)cc1Cl (centres unmarked) [I-261],3.41^[a]
9,"CCCC(C)C(O)(Cn1cncc1C#N)c1ccc(Cl)cc1Cl (single isomer, unassigned) [I-315]",3.63^[a]
10,CCCCCC(O)(Cn1cncc1C#N)c1ccccc1C(F)(F)F (centres unmarked) [I-346],3.23^[a]
11,C[Si](C)(C)CC(O)(Cn1cncc1C#N)c1ccccc1Cl (centres unmarked) [I-306],3.39^[a]
12,N#Cc1cncn1CC(O)(C#Cc1ccc(Cl)cc1)C1(Cl)CC1 (centres unmarked) [I-322],2.96^[a]
13,CCOC(Cn1cncc1C(N)=O)c1ccc(Oc2ccc(Cl)cc2)cc1C(F)(F)F (centres unmarked) [I-83],2.54^[a]
14,OC(Cn1cncc1Cl)c1ccc(Oc2ccc(Cl)cn2)cc1Cl (centres unmarked) [I-37],1.98^[a]
15,N#Cc1cncn1CC(O)c1ccc(Oc2ccc(Br)nc2)nc1C(F)(F)F (centres unmarked) [I-154],2.46^[a]
16,OC(Cn1cncc1Br)c1ccc(Oc2ccc(Br)cc2)cc1Br (centres unmarked) [I-44],2.78^[a]
17,CCOC(Cn1cncc1C#N)c1ccc(Oc2ccc(Cl)cc2)cc1C(F)(F)F (centres unmarked) [I-84],4.54^[a]
18,CC(=O)OC(Cn1cncc1F)c1ccc(Oc2ccc(Cl)cc2)cc1C(F)(F)F (centres unmarked) [I-104],3.18^[a]

row,Compound,LogP
1,CC(O)(Cn1cncc1Cl)c1ccc(Oc2ccc(Br)cc2)cc1Cl (centres unmarked) [I-173],2.80^[a]
2,N#Cc1cncn1CC(O)c1ccc(Cl)cc1Cl (centres unmarked) [I-144],2.12^[a]
3,N#CCOC(Cn1cncc1C#N)c1ccc(Oc2ccc(Br)cc2)cc1C(F)(F)F (centres unmarked) [I-87],3.73^[a]
4,N#Cc1cncn1CC(O)c1ccc(Oc2ccc(Br)cc2)nc1C(F)(F)F (centres unmarked) [I-128],3.09^[a]
5,CC(O)(Cn1cncc1C#N)c1ccc(Oc2ccc(I)cc2)cc1F (centres unmarked) [I-189],3.48^[a]
6,N#Cc1cncn1CC(O)(c1ccc(F)cc1Br)C1(F)CC1 (centres unmarked) [I-357],2.31^[a]
7,N#Cc1cncn1CC(O)c1ccc(Oc2ccc(Br)cc2)cc1F (centres unmarked) [I-48],3.04^[a]
8,N#Cc1cncn1CC(O)(c1ccc(F)cc1F)C1(F)CC1 (centres unmarked) [I-352],2.08^[a]
9,CC(O)(Cn1cncc1F)c1cnc(Oc2ccc(C(F)(F)F)cc2)cc1Cl (centres unmarked) [I-244],2.13^[a]
10,N#Cc1cncn1CC(O)c1ccc(Oc2ccc(C(F)(F)F)cc2)nc1 (centres unmarked) [I-129],2.55^[a]
11,Cc1ccc(C#CC(O)(Cn2cncc2C#N)C2(Cl)CC2)cc1 (centres unmarked) [I-293],2.82^[a]
12,CC(C)(C)c1ccc(C(O)(Cn2cncc2C#N)C2(Cl)CC2)c(Cl)c1 (centres unmarked) [I-354],3.39^[a]
13,CC(O)(Cn1cncc1F)c1ccc(Oc2ccc(Br)cc2)nc1C(F)(F)F (centres unmarked) [I-213],2.35^[a]
14,CC(O)(Cn1cncc1C#N)c1ccc(Oc2ccc(Cl)cc2)cc1C(F)(F)F (centres unmarked) [I-209],3.51^[a]
15,N#Cc1cncn1CC(O)(CC1CC1)c1cnc(Cl)cc1Cl (centres unmarked) [I-510],2.07^[a]
16,N#Cc1cncn1CC(O)c1ccc(Oc2ccc(Cl)nc2)cc1C(F)(F)F (centres unmarked) [I-10],2.59^[a]
17,CCOC(Cn1cncc1Cl)c1ccc(Oc2ccc(Br)cc2)cc1Br (centres unmarked) [I-58],4.21^[a]

# Further lines, results first:
row,LogP,Compound
1,2.52^[a],C#Cc1ccc(C(O)(Cn2cncc2C#N)C2(Cl)CC2)c(Cl)c1 (centres unmarked) [I-370]
2,2.78^[a],N#Cc1cncn1CC(O)(CC1CC1)c1ccc(Cl)c(Cl)c1 (centres unmarked) [I-488]
3,3.39^[a],CC(C)(C)C(O)(Cn1cncc1C#N)c1cc(Br)cc(Br)c1 (centres unmarked) [I-490]
4,2.44^[a],N#Cc1cncn1CC(O)(C=CCC(Cl)CCl)C1(F)CC1 (centres unmarked) [I-680]
5,2.29^[a],N#Cc1cncn1CC(O)(c1cc(F)cc(F)c1F)C1(Cl)CC1 (centres unmarked) [I-620]
6,3.31^[a],CC(C)(C)C(O)(Cn1cncc1C#N)c1cc(F)c(Cl)c(Cl)c1 (centres unmarked) [I-545]
7,2.80^[a],N#Cc1cncn1CC(O)(c1cc(Cl)cc(Cl)c1Cl)C1(Cl)CC1 (centres unmarked) [I-614]
8,3.30^[a],C[Si](C)(CCC(O)(Cn1cncc1C#N)C1(F)CC1)c1ccccc1 (centres unmarked) [I-668]
9,2.78^[a],N#Cc1cncn1CC(O)(CC1CC1)c1ccc(F)cc1Br (centres unmarked) [I-443]
10,3.67^[a],N#Cc1cncn1CC(=O)c1cnc(Oc2ccc(S(F)(F)(F)(F)F)cc2)cc1C(F)(F)F [IX-81]
11,2.39^[a],N#Cc1cncn1CC(O)(c1ccc(F)c(Cl)c1)C1(F)CC1 (centres unmarked) [I-444]
12,2.45^[a],N#Cc1cncn1CC(O)(c1c(F)cc(F)cc1Cl)C1(Cl)CC1 (centres unmarked) [I-563]
13,2.92^[a],N#Cc1cncn1CC(O)(c1ccc(C#CC2CC2)cc1F)C1(F)CC1 (centres unmarked) [I-643]
14,2.34^[a],N#Cc1cncn1CC(O)(c1cc(F)c(F)c(F)c1)C1(F)CC1 (centres unmarked) [I-500]
15,2.37^[a],CC1(C(O)(Cn2cncc2C#N)c2ccc(F)cc2F)CC1 (centres unmarked) [I-440]
16,3.64^[a],N#Cc1cncn1CC(O)(c1ccc(Oc2ccc(Cl)cc2)cc1Cl)C1(F)CC1 (centres unmarked) [I-390]
17,3.85^[a],C[Si](C)(C)C=CC(O)(Cn1cncc1C(F)(F)F)C1(Cl)CC1 (centres unmarked) [I-690]
18,2.41^[a],N#Cc1cncn1CC(O)(c1ccc(F)cc1Cl)C1CC1 (centres unmarked) [I-412]
19,2.80^[a],N#Cc1cncn1CC(O)(c1cc(Cl)c(Cl)cc1F)C1(Cl)CC1 (centres unmarked) [I-621]
20,3.31^[a],C[Si](C)(C#CC(O)(Cn1cncc1C#N)C1(Cl)CC1)c1ccccc1 (centres unmarked) [I-594]
21,2.41^[a],N#Cc1cncn1CC(O)(c1ccc(F)c(F)c1Cl)C1(Cl)CC1 (centres unmarked) [I-628]
22,2.66^[a],Cc1cc(C(O)(Cn2cncc2C#N)C2(F)CC2)c(F)cc1Cl (centres unmarked) [I-507]
23,2.62^[a],N#Cc1cncn1CC(O)(c1ccc(Br)cc1F)C1CC1 (centres unmarked) [I-404]
24,2.70^[a],N#Cc1cncn1CC(O)(c1ccc(Br)cc1Cl)C1(Cl)CC1 (centres unmarked) [I-648]
25,1.57^[a],OC(Cn1cncc1F)(c1ccc(Cl)cc1F)C1(F)CC1 (centres unmarked) [I-437]
26,3.10^[a],N#Cc1cncn1CC(O)(CC1CC1)c1ccc(Cl)cc1C(F)(F)F (centres unmarked) [I-460]
27,3.52^[a],C[Si](C)(C)C#CC(O)(Cn1cncc1C(F)(F)F)C1(Cl)CC1 (centres unmarked) [I-607]
28,3.57^[a],CC(C)(C)C#Cc1ccc(C(O)(Cn2cncc2C#N)C2(F)CC2)c(F)c1 (centres unmarked) [I-646]
29,2.67^[a],N#Cc1cncn1CC(O)(c1cc(Cl)cc(Cl)c1)C1(F)CC1 (centres unmarked) [I-472]
30,3.29^[a],CCCC#Cc1ccc(C(O)(Cn2cncc2C#N)C2(F)CC2)c(F)c1 (centres unmarked) [I-645]

# Same assay, conditions: reversed phase HPLC column; method [a], HPLC on reversed phase columns
row,chromatographic logP,Compound
1,3.48,"N#Cc1cncn1CC(O)(C=CC1CCCCC1)C1(Cl)CC1 (centres unmarked) [I-663, 1-[2-(1-chlorocyclopropyl)-4-cyclohexyl-2-hydroxybut-3-en-1-yl]-1H-imidazole-5-carbonitrile]"

# Same assay, conditions: reversed phase HPLC column; method [a]: LC-UV, acidic range, 0.1% formic acid in water and acetonitrile as eluent (linear gradient from 10% to 95% acetonitrile)
row,chromatographic logP,Compound
1,1.59,O=Cc1ccc(Oc2ccc(C(=O)Cn3cncc3F)c(Cl)n2)cc1 [IX-85]
2,2.64,COc1ccc(Oc2ccc(C(=O)Cn3cncc3Cl)c(Cl)n2)c(Cl)c1 [IX-24]

# — US20200031778A1, “NOVEL 5-SUBSTITUTED IMIDAZOLYLMETHYL DERIVATIVES” (Bayer CropScience Aktiengesellschaft, priority 2016, published 2020)
